Reference: paper PMC4774911, “Biochemical Screening of Five Protein Kinases from Plasmodium falciparum against 14,000 Cell-Active Compounds” (PLoS ONE, 2016)
Values joined by “and” are separate entries in the source; they are usually repeats but may differ in a detail not shown here. Equal values may be shown once.

Assays:
Test in all cases: biochemical
Parameters in all cases: endogenous in cells; host or cells: K562 cell extract; species or system K562 (extract); replicate k of n = 2 (each experiment ID is one independent experiment; two experiment IDs per compound)
Settings in all cases: read-out: KDapp
PIP4K2B = biological target: T1, PIP4K2B (Homo sapiens, UniProt P78356)
T1 sequence (P78356 1-416): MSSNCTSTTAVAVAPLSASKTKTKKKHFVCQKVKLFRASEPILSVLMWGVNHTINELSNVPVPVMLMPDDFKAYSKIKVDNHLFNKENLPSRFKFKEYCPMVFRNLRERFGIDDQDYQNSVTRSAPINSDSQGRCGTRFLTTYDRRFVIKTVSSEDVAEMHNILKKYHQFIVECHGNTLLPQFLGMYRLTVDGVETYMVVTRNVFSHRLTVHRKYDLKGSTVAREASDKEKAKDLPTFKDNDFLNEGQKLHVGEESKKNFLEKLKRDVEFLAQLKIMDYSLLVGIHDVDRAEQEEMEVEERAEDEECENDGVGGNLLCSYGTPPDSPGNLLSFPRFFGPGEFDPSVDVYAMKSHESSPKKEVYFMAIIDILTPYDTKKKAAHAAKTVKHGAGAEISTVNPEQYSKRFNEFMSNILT

MYLK3 = biological target: T2, MYLK3 (Homo sapiens, UniProt Q32MK0)
T2 sequence (Q32MK0 1-819): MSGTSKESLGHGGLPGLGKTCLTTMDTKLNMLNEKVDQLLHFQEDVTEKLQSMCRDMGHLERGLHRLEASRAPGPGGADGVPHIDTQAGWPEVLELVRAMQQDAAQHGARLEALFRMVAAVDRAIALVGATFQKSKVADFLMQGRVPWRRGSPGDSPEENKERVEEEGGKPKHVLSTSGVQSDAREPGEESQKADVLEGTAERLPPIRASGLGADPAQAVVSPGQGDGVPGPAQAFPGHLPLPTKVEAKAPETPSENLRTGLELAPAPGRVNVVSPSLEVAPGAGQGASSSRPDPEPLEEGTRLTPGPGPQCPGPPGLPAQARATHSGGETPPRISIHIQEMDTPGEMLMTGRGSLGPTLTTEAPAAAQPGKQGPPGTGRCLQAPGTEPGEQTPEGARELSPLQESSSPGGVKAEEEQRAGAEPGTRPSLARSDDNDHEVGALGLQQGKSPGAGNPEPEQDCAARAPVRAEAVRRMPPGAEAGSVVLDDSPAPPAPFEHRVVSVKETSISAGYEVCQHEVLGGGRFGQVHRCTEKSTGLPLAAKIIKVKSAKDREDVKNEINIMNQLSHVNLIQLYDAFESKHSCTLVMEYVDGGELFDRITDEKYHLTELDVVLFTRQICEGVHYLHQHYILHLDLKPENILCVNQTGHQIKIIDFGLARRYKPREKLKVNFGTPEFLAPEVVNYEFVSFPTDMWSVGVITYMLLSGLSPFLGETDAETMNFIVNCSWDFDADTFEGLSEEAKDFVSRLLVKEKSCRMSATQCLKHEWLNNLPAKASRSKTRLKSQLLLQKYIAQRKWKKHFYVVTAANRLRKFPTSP

MARK2 = MARK2 (Homo sapiens, UniProt Q7KZI7)
MAP3K11 = MAP3K11 (Homo sapiens, UniProt Q16584)
EIF2AK4 = EIF2AK4 (Homo sapiens, UniProt Q9P2K8)
STK16 = STK16 (Homo sapiens, UniProt O75716)
PRKACB = PRKACB (Homo sapiens, UniProt P22694)
MINK1 = MINK1 (Homo sapiens, UniProt Q8N4C8)
SRC = SRC (Homo sapiens, UniProt P12931)
ZAK = ZAK (Homo sapiens, UniProt Q9NYL2)
KIAA0999 = KIAA0999 (Homo sapiens, UniProt Q9Y2K2)
Chain of KIAA0999 (Q9Y2K2 whole entry): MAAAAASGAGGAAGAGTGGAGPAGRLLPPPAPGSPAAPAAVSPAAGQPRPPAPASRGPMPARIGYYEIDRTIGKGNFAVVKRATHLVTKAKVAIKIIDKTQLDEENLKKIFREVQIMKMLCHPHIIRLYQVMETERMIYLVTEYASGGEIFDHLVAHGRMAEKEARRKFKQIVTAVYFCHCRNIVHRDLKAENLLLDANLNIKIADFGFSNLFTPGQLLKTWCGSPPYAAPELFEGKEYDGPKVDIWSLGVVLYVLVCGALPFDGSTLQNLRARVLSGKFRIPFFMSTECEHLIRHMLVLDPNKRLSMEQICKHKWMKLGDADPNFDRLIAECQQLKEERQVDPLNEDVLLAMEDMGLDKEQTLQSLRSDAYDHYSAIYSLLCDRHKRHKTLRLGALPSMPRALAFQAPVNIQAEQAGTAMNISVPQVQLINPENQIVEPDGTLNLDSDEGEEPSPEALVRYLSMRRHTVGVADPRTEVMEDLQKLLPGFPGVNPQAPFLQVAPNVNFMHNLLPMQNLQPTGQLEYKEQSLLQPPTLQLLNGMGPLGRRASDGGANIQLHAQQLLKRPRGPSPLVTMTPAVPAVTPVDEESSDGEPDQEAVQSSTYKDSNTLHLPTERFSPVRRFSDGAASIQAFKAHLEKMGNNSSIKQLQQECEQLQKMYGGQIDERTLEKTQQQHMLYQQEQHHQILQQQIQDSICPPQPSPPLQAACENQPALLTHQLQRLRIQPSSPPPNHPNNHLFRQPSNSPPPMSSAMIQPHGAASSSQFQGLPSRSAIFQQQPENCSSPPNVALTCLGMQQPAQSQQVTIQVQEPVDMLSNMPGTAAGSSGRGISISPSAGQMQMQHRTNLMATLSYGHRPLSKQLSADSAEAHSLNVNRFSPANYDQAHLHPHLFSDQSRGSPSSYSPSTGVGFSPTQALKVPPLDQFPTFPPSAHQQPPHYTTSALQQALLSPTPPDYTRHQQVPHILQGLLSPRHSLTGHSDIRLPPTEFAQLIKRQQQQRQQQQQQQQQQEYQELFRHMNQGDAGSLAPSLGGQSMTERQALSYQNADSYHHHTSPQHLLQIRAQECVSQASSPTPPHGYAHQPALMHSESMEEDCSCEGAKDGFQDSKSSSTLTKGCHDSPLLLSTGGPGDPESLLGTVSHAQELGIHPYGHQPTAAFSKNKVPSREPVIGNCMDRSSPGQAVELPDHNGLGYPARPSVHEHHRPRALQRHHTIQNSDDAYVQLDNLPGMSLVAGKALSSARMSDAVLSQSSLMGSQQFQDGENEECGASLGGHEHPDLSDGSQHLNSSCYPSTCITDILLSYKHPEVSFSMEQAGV

Chain of MARK2 (Q7KZI7 whole entry): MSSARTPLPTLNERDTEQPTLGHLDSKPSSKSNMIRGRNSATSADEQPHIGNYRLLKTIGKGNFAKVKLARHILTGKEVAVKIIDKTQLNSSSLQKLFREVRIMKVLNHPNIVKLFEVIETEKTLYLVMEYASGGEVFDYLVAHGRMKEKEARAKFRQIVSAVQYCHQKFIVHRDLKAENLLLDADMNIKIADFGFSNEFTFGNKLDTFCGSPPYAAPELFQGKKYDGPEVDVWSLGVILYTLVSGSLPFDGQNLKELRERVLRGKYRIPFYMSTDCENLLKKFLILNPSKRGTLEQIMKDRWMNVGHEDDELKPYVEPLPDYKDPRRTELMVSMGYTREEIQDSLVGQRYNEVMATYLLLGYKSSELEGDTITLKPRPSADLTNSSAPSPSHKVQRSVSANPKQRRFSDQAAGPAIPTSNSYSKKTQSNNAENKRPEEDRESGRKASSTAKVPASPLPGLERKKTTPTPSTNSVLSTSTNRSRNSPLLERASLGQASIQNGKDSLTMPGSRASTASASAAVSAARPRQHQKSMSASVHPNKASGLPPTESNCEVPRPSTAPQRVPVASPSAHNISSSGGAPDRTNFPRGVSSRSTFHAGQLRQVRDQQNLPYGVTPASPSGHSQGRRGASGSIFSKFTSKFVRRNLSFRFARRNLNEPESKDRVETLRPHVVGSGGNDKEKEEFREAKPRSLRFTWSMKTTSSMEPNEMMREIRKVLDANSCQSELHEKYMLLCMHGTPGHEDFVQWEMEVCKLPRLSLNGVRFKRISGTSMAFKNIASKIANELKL
Chain of MAP3K11 (Q16584 whole entry): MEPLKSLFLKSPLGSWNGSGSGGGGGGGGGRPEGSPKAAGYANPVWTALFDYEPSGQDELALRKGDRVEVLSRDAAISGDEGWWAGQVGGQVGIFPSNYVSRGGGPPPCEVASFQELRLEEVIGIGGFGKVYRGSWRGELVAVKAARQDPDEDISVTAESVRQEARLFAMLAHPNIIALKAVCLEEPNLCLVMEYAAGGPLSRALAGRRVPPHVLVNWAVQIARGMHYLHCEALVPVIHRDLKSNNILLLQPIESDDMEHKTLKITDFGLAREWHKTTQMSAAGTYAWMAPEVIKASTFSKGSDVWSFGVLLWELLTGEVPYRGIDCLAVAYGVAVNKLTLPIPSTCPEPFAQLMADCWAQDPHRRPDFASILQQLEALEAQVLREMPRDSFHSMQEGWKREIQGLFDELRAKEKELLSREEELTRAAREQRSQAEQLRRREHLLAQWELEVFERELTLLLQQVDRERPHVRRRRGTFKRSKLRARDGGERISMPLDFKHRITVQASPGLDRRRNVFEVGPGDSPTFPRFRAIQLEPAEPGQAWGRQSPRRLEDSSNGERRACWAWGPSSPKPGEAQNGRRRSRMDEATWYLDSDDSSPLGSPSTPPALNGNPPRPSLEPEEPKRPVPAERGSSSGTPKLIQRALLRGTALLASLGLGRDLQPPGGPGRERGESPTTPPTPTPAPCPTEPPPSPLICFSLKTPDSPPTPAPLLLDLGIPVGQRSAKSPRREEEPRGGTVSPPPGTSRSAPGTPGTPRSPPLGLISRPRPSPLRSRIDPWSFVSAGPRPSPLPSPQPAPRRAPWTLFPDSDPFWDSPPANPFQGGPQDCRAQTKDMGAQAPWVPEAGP
Chain of SRC (P12931 whole entry): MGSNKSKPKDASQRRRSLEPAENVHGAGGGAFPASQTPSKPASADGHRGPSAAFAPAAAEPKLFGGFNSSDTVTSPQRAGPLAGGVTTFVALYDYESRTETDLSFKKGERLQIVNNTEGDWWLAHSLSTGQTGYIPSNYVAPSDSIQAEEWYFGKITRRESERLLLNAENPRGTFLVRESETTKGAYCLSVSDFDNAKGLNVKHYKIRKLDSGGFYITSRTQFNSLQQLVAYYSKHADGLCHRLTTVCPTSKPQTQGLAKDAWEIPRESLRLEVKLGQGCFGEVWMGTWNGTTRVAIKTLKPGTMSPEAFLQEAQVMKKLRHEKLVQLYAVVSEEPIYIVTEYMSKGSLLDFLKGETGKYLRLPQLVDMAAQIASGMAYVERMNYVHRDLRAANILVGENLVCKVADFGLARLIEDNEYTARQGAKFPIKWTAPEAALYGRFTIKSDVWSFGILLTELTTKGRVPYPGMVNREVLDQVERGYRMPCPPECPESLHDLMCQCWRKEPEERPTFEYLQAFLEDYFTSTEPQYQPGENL
Chain of STK16 (O75716 whole entry): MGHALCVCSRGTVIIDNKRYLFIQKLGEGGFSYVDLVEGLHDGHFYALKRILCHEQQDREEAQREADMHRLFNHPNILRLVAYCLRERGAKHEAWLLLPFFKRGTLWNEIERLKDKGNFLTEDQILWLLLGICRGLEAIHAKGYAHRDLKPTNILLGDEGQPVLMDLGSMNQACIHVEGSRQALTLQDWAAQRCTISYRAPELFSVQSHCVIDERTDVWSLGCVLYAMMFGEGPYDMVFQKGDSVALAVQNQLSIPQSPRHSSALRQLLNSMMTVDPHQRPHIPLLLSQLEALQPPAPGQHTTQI
Chain of ZAK (Q9NYL2 whole entry): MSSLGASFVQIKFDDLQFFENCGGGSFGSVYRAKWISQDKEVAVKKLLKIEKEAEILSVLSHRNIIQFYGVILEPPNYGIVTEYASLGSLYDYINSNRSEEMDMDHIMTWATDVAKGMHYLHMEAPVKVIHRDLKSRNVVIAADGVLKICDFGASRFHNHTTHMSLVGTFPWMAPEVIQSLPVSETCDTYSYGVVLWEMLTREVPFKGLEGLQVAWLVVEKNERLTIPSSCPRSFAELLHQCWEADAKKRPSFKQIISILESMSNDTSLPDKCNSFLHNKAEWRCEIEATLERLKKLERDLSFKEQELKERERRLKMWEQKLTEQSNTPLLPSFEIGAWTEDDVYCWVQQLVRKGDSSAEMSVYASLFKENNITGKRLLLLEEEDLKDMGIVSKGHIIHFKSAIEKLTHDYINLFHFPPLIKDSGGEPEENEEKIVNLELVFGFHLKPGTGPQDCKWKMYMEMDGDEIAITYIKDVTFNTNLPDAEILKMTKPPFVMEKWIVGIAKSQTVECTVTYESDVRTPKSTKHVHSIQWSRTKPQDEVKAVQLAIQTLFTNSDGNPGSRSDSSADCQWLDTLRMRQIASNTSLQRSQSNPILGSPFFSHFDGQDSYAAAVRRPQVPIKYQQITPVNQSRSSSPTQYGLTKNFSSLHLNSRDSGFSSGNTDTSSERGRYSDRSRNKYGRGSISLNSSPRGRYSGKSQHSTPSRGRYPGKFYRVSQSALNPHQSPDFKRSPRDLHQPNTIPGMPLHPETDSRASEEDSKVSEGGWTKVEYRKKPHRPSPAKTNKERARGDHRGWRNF

SMILES	Kd (PIP4K2B)	Kd (MYLK3)	Kd (MARK2)	Kd (MAP3K11)	Kd (EIF2AK4)	Kd (STK16)	Kd (PRKACB) [nM]	Kd (MINK1) [nM]	Kd (SRC)	Kd (ZAK)	Kd (KIAA0999)
CN(C)CC(O)COc1ccc(Nc2ncc([N+](=O)[O-])c(Nc3ccccc3O)n2)cc1.O=C(O)C(F)(F)F (stereo not shown) [TCMDC-141399]	684 nM and 987 nM	1760 nM and 1510 nM	3510 nM	728 nM and 328 nM	182 nM and 245 nM	551 nM	–	–	–	–	–
Cl.NCC1(c2nc(-c3ccc(Cl)c(O)c3)c(-c3ccncc3)[nH]2)CCCCC1 [TCMDC-141154]	–	–	–	–	–	–	811	837	111 nM	6130 nM and 3630 nM	40.3 nM and 31.2 nM
CN1CCN(c2ccc(Nc3ncc(C#N)c(Nc4ccccc4C(N)=O)n3)cc2)CC1.Cl [TCMDC-134116]	1130 nM and 705 nM	56 nM and 77.8 nM	121 nM and 115 nM	46.3 nM	168 nM and 147 nM	135 nM and 190 nM	5740	173	184 nM and 157 nM	677 nM	214 nM and 153 nM
